In patent publication US20200087269A1, “PROCESS FOR THE PRODUCTION OF OZANIMOD” (EGIS GYOGYSZERGYAR ZRT., priority 2017, published 2020):

Key:
[1] = Dynamic vapour sorption (DVS) measurement; assay type: physicochemical; settings: 25° C.
Protocol: Dynamic Vapour Sorption (DVS)
Device: TA Q5000SA dynamic vapour sorption analyser (DVS) Atmosphere: Flowing nitrogen Carrier gas flow rate: 200 mL/min N2
Balance house flow rate: 10 mL/min N2 Temperature maintained • 35° C. in balance house: Crucible type: Platinum 100 μl, open Measuring method: Custom
Measuring temperature: 25° C., isotherm Measurement range: Between 0% and 95% RH Initial relative humidity: 20% RH Measurement phases: Desorption-adsorption-desorption Step size: 5% RH Mass constant criterion: ≤0.01% for 5 minutes Maximum step length: 360 minutes Sampling frequency: 5 sec/point Number of cycles: 2
The dynamic vapour sorption (DVS) measurement of the ozanimod base Form I polymorph according to example 6

[2] = X-ray powder diffraction after two DVS cycles (polymorph stability to humidity); assay type: physicochemical
Protocol: FIG. 5: The x-ray powder diffractogram of the ozanimod base Form I form after two DVS cycles (see example 6).
The x-ray powder diffraction measurements were performed as follows:
Device: PANalytical Empyrean x-ray powder diffractometer Measurement alignment: Transmission
Type: Empyrean long fine focussing, high resolution tube
Divergence slit: Fixed slit 1/2° Mirror: Focussing elliptical mirror Soller slit: 0.04 rad Diffusion inhibitor slit: Fixed slit 1/2°
Diffusion inhibitor slit: Programmable slit in fixed mode: 1/2° Soller slit: 0.04 rad
Type: Reflection-transmission, with rotatable sample holders Sample rotation speed: 1 rotation/second Direct beam catcher (“beam knife”): Transmission
Type: PIXcel 3D 1×1 area detector Operation mode: Scanning line detector (ID) operation mode Active detector window size: 3.3473° Sample preparation: samples placed between two Mylar sheets, without pulverising
Temperature: room temperature Accelerating voltage: 45 kV Anode heating current: 40 mA Scanning method: continuous (θ/θ) scanning Measurement range: 2.0000-34.9964° 2θ
Step duration: 109.650 seconds No of measurement cycles: 1 Measurement duration: ˜20 minutes

- hygroscopicity ([1]; DVS, 0-95% RH): slightly hygroscopic
- sorption isotherm on repeating the cycle ([1]; second DVS cycle): did not change
- mass increase of the sample ([1]; under 95% relative humidity, first cycle): 0.6%
- polymorphic nature under air humidity ([2]; according to applicant's tests): does not change
- crystal structure after the two DVS cycles (x-ray powder diffractogram, FIG. 5 vs FIG. 3) ([2]; after two DVS cycles, 25° C., 0-95% RH): unchanged
Compound: CC(C)Oc1ccc(-c2nc(-c3cccc4c3CC[C@@H]4NCCO)no2)cc1C#N [ozanimod base Form I polymorph, ozanimod]
- stability of the polymorph form / sensitivity to humidity ([2]; 25° C.): stable at 25° C., and not sensitive to humidity
- influence of the humidity of the air on the stability of the crystals ([2]; according to applicant's tests): does not influence the stability of the crystals
